The source made the active and inactive calls. The rule behind the calls is not given here.
Key:
[1] = molecular target: Fibroblast growth factor receptor 2 (Homo sapiens, UniProt P21802); experiment: Inhibition of FGFR2 (unknown origin) by ELISA
[2] = molecular target: Fibroblast growth factor receptor 3 (Homo sapiens, UniProt P22607); experiment: Inhibition of FGFR3 (unknown origin) by ELISA
[3] = tested on: MDA-MB-231; experiment: Cell cycle arrest in human MDA-MB-231 cells assessed as accumulation of G2-M phase cells at 2.5 uM incubated for 24 hrs by […]PI staining based flow cytometric analysis (reference value: 16.88%); format: functional
[4] = tested on: MDA-MB-231; experiment: Cell cycle arrest in human MDA-MB-231 cells assessed as accumulation of S phase cells at 2.5 uM incubated for 24 hrs by […]PI staining based flow cytometric analysis (reference value: 41.29%); format: functional
[5] = tested on: MDA-MB-231; experiment: Cell cycle arrest in human MDA-MB-231 cells assessed as accumulation of G2-M phase cells at 5 uM incubated for 24 hrs by […]PI staining based flow cytometric analysis (reference value: 16.88%); format: functional
[6] = tested on: MDA-MB-231; experiment: Cell cycle arrest in human MDA-MB-231 cells assessed as accumulation of G0-G1 phase cells at 10 uM incubated for 24 hrs by […]PI staining based flow cytometric analysis (reference value: 41.83%); format: functional
[7] = tested on: MDA-MB-231; experiment: Cell cycle arrest in human MDA-MB-231 cells assessed as accumulation of S phase cells at 10 uM incubated for 24 hrs by […]PI staining based flow cytometric analysis (reference value: 41.29%); format: functional
[8] = tested on: MDA-MB-231; experiment: Induction of apoptosis in human MDA-MB-231 cells assessed as early apoptotic cells at 2.5 uM incubated for 24 hrs by Annexin V-FITC/PI staining based flow cytometric analysis (reference value: 0.131 %); format: functional
[9] = tested on: MDA-MB-231; experiment: Induction of apoptosis in human MDA-MB-231 cells assessed as late apoptotic cells at 2.5 uM incubated for 24 hrs by Annexin V-FITC/PI staining based flow cytometric analysis (reference value: 0.161 %); format: functional
[10] = tested on: MDA-MB-231; experiment: Induction of apoptosis in human MDA-MB-231 cells assessed as necrotic cells at 2.5 uM incubated for 24 hrs by Annexin V-FITC/PI staining based flow cytometric analysis (reference value: 0.063 %); format: functional
[11] = tested on: MDA-MB-231; experiment: Induction of apoptosis in human MDA-MB-231 cells assessed as viable cells at 5 uM incubated for 24 hrs by Annexin V-FITC/PI staining based flow cytometric analysis (reference value: 99.645%); format: functional; settings: read-out: Activity
[12] = tested on: MDA-MB-231; experiment: Induction of apoptosis in human MDA-MB-231 cells assessed as late apoptotic cells at 10 uM incubated for 24 hrs by Annexin V-FITC/PI staining based flow cytometric analysis (reference value: 0.161 %); format: functional
[13] = tested on: MDA-MB-231; experiment: Induction of apoptosis in human MDA-MB-231 cells assessed as necrotic cells at 10 uM incubated for 24 hrs by Annexin V-FITC/PI staining based flow cytometric analysis (reference value: 0.063 %); format: functional
[14] = tested on: MDA-MB-231; experiment: Induction of apoptosis in human MDA-MB-231 cells assessed as apoptotic cells at 10 uM incubated for 24 hrs by Annexin V-FITC/PI staining based flow cytometric analysis relative to control; format: functional
[15] = tested on: MDA-MB-231; experiment: Inhibition of cell migration in human MDA-MB-231 cells at 5 uM incubated for 12 hrs by cell scratch assay relative to control; format: functional
[16] = tested on: MDA-MB-231; experiment: Induction of apoptosis in human MDA-MB-231 cells assessed as inhibition of Bcl-2 protein expression incubated for 24 hrs by Western blot analysis; format: functional, cell-based; settings: dose 2.5-10 µM
[17] = tested on: MDA-MB-231; experiment: Induction of apoptosis in human MDA-MB-231 cells assessed as increase in cleaved-PARP protein expression incubated for 24 hrs by Western blot analysis; format: functional, cell-based; settings: dose 2.5-10 µM
[18] = tested on: MDA-MB-231; experiment: Effect on FGFR1 protein expression in human MDA-MB-231 cells at 5 to 10 uM incubated for 24 hrs by Western blot analysis; format: functional, cell-based; settings: dose 5-10 µM
[19] = tested on: MDA-MB-231; experiment: Effect on ERK protein expression in human MDA-MB-231 cells at 5 to 10 uM incubated for 24 hrs by Western blot analysis; format: functional, cell-based; settings: dose 5-10 µM
[20] = tested on: MDA-MB-231; experiment: Effect on PLCgamma protein expression in human MDA-MB-231 cells at 5 to 10 uM incubated for 24 hrs by Western blot analysis; format: functional, cell-based; settings: dose 5-10 µM
[21] = Metabolic stability in human liver microsomes assessed as parent compound remaining at 1 uM measured after 15 mins by LC-MS/MS analysis; format: ADME, Microsome; settings: read-out: Stability
[22] = Metabolic stability in human liver microsomes assessed as parent compound remaining at 1 uM measured after 30 mins by LC-MS/MS analysis; format: ADME, Microsome; settings: read-out: Stability
[23] = Metabolic stability in mouse liver microsomes assessed as parent compound remaining at 1 uM measured after 5 mins by LC-MS/MS analysis; format: ADME, Microsome; settings: read-out: Stability
[24] = Metabolic stability in mouse liver microsomes assessed as parent compound remaining at 1 uM measured after 15 mins by LC-MS/MS analysis; format: ADME, Microsome; settings: read-out: Stability
[25] = Metabolic stability in mouse liver microsomes assessed as parent compound remaining at 1 uM measured after 45 mins by LC-MS/MS analysis; format: ADME, Microsome; settings: read-out: Stability
[26] = Metabolic stability in human liver microsomes assessed as half-life at 1 uM incubated for 45 mins by LC-MS/MS analysis; format: ADME, Microsome
[27] = Metabolic stability in human liver microsomes assessed as intrinsic clearance at 1 uM incubated for 45 mins by LC-MS/MS analysis; format: ADME, Microsome; settings: read-out: CLH
[28] = Metabolic stability in rat liver microsomes assessed as half-life at 1 uM incubated for 45 mins by LC-MS/MS analysis; format: ADME, Microsome
[29] = Metabolic stability in rat liver microsomes assessed as intrinsic clearance at 1 uM incubated for 45 mins by LC-MS/MS analysis; format: ADME, Microsome; settings: read-out: CLH
[30] = Metabolic stability in mouse liver microsomes assessed as half-life at 1 uM incubated for 45 mins by LC-MS/MS analysis; format: ADME, Microsome
[31] = tested on: MDA-MB-231; experiment: Antitumor activity against human MDA-MB-231 cells xenografted in female BALB/c athymic nude mouse assessed as tumor growth inhibition at 20 mg/kg, po administered once a day via gavage for 21 days relative to control; format: functional; settings: MDA-MB-231, 504 h, time 21 day, read-out: TGI
[32] = Toxicity in BALB/c athymic nude mouse xenografted with human MDA-MB-231 cells assessed as body weight loss at 10 to 30 mg/kg, po administered once a day via gavage for 21 days; format: organism-based; settings: in vivo, 504 h, dose 10-30 mg/kg, time 21 day
[33] = Toxicity in BALB/c athymic nude mouse xenografted with human MDA-MB-231 cells assessed as effect on liver at 10 to 30 mg/kg, po administered once a day via gavage for 21 days by H and E staining based analysis; format: organism-based; settings: in vivo, 504 h, dose 10-30 mg/kg, time 21 day
[34] = Toxicity in BALB/c athymic nude mouse xenografted with human MDA-MB-231 cells assessed as effect on lung at 10 to 30 mg/kg, po administered once a day via gavage for 21 days by H and E staining based analysis; format: organism-based; settings: in vivo, 504 h, dose 10-30 mg/kg, time 21 day
[35] = tested on: HepG2; experiment: cells; settings: Homo sapiens, HepG2, 72 h
[36] = in vitro; settings: human, HUVEC cells
Description: Cytotoxicity against HUVEC cells assessed as inhibition of cell growth incubated for 72 hrs by MTT assay

Fibroblast growth factor receptor 2, sequence (P21802 whole entry): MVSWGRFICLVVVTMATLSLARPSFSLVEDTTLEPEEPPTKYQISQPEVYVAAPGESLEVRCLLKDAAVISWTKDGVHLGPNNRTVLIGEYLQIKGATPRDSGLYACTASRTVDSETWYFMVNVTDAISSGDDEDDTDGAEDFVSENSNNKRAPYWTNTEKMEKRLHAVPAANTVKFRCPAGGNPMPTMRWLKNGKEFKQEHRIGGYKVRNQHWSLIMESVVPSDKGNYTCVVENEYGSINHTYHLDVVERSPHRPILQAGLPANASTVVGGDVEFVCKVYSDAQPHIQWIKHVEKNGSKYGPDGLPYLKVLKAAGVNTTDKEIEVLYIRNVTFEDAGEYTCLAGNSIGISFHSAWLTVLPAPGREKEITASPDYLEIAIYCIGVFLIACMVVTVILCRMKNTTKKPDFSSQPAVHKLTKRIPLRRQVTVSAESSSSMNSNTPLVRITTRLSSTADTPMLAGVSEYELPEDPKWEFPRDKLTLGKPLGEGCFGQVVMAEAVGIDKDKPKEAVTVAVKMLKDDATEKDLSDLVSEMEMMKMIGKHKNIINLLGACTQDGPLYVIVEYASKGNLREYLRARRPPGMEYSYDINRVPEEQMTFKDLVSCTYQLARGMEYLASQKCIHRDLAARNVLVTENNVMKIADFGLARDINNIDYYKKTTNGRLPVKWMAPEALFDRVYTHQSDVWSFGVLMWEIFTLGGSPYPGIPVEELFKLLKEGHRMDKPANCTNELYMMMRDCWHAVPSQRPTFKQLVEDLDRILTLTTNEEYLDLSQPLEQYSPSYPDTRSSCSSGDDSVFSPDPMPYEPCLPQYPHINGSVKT
Fibroblast growth factor receptor 3, sequence (P22607 whole entry): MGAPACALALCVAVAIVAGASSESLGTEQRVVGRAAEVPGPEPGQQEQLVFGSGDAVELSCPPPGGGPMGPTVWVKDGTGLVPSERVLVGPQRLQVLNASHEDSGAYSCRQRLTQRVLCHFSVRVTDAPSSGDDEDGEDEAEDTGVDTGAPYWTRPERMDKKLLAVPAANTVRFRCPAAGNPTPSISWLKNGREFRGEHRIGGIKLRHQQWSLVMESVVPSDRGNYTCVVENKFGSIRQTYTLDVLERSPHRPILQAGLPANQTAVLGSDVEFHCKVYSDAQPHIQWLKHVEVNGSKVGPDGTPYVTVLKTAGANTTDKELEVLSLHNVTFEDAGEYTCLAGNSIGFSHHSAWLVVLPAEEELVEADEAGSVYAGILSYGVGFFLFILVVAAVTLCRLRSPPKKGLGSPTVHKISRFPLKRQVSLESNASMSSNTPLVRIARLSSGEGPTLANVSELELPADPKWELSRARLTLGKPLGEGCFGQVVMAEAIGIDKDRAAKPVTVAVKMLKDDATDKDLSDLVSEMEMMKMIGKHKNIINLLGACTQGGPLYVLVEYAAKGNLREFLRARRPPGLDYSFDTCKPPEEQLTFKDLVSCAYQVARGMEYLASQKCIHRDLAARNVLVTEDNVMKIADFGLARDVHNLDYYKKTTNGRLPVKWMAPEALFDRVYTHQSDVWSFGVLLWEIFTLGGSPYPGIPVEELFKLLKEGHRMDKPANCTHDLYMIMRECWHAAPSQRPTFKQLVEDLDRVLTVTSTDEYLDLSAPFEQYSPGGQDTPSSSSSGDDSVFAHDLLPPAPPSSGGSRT

IC50 [1]: 0.89 nM
IC50 [2]: 0.64 nM
remaining at 0.25 h, 1 µM [21]: 63.5%
remaining at 0.5 h, 1 µM [22]: 43.7%
remaining at 5 min, 1 µM [23]: 61.5%
remaining at 0.25 h, 1 µM [24]: 27.2%
remaining at 0.75 h, 1 µM [25]: 3.58%
half-life at 1 µM [26]: 41.4 min
CLint scaled at 1 µM [27]: 42 mL/min/kg
half-life at 1 µM [28]: 15.9 min
CLint scaled at 1 µM [29]: 156 mL/min/kg
half-life at 1 µM [30]: 12.9 min
IC50 [35]: 7.93 µM
IC50 at 72 h [36]: 82.1 µM
Compound: C=CC(=O)Nc1ccc(Cn2cnc3c(-c4cc(OC)cc(OC)c4)ncnc32)cc1
Activity [3]: 14.94%
Activity [4]: 34.25%
Activity [5]: 10.68%
Activity [6]: 73.78%
Activity [7]: 10.73%
Activity [8]: 26.3%
Activity [9]: 6.16%
Activity [10]: 2.66%
viability at 5 µM [11]: 47.8%
Activity [12]: 15.73%
Activity [13]: 1.66%
Activity [14]: 56.8%
inhibition at 5 µM [15]: 82%
Activity [16]: Dose-Dependent Effect
Activity [17]: Dose-Dependent Effect
Activity [18]: inactive
Activity [19]: inactive
Activity [20]: inactive
inhibition in vivo at 20 mg/kg [31]: 64.2%
Activity [32]: Non-Toxic
Activity [33]: Non-Toxic
Activity [34]: Non-Toxic
